pIC50: −log10 of the molar value.
What was measured:
CDK8 = CDK8 (Homo sapiens (Human), UniProt P49336); test: LanthaScreen Eu Binding Assay, Thermo Fisher SelectScreen kinase service; conditions: for inhibition at 10 µM: read-out: CDK8 Inhibition percentage at 10 μM; for pIC50: read-out: Inhibition of CDK8 IC50
Experimental: Compounds were tested for kinase inhibitory activity using the Thermo Fisher SelectScreen service (www.thermofisher.com/selectscreen). For CDK8, the LanthaScreen Eu Binding Assay was used. Briefly, the assay employed utilizes a fluorescent tracer to a given kinase. This is used to detect the addition of an anti-tag antibody. When the tracer and antibody bind to the targeted kinase, the Forster resonance energy transfer is measured. When a kinase inhibitor is added to the assay, the tracer/kinase binding will be disrupted, producing low FRET detection and indicating kinase inhibitory activity. Evaluation of kinase activity of additional kinase targets utilized the LanthaScreen binding assay or the Z′-Lyte activity assay provided by Thermo Fisher SelectScreen service. The IC50 values were determined using sequential doses, and the inhibition curves were provided by Thermo Fisher Scientific.
The fragment-based drug design strategy in this study led to optimized CDK8 inhibitors with promising results. CDK8-inhibitory activities of the compounds (a-n) designed by this fragment-based drug design strategy were tested using the SelectScreen kinase service of ThermoFisher Scientific. The inhibitory effects of the 14 compounds and the referenced compound were tested at a concentration of 10 μM.

A549 cells [1] = test: TGF-β1-induced EMT protein expression, western blot; assay type: cell-based, human; conditions: test compounds 2 μM, senexin A 5 μM, pirfenidone 1 mM; TGF-β1 10 ng/mL
Experimental: FIGS. 4A-4B show the inhibition of epithelial-to-mesenchymal transition protein expressions by CDK8 inhibitors in human alveolar epithelial cells. […] Cell lysates were subjected to a Western blot analysis using the indicated antibodies. Results are shown as the mean t SEM from three independent experiments. *p<0.05, and ***p<0.001 compared to the control group; #p<0.05, ##p<0.01, and ###p<0.001 compared to the TGF-β1-treated group. […] Cell viabilities were determined by an MTT assay. Results are shown as the mean t SEM of three independent experiments.
(§1) Cells (106) were incubated for 10 min at 4° C. in lysis buffer (20 mM HEPES at pH 7.4, 2 mM EGTA, 50 mM β-glycerophosphate, 0.1% Triton X-100, 10% glycerol, 1 mM DTT, 1 μg/mL of leupeptin, 5 μg/mL of aprotinin, 1 mM phenylmethylsulfonyl fluoride, and 1 mM sodium orthovanadate), scraped off, incubated on ice for an additional 10 min, and centrifuged at 17,000 g for 30 min at 4° C. Protein samples (20 μg) were then electrophoresed on SDS-polyacrylamide gel electrophoresis (PAGE) gels and transferred to a nitrocellulose membrane, which was then blocked by incubation for 30 min at room temperature with 5% bovine serum albumin (BSA) in Tris-buffered saline with 0.1% Tween-20 (TBST). Immunoblotting was performed by overnight incubation at 4° C. with primary antibodies in TBST, followed by incubation for 1 h at room temperature with horseradish peroxidase (HRP)-conjugated secondary antibodies. Bound antibodies were measured using enhanced chemiluminescence (ECL) reagent (GE Healthcare, UK) and exposed to photographic film.

A549 cells [2] = test: Wound-healing migration assay; assay type: cell-based, human; conditions: compounds 2 μM, senexin A 5 μM, pirfenidone 1 mM; TGF-β1 10 ng/mL; 24 or 48 h
Experimental: A549 cells were incubated in six-well plates until reaching 90% confluency, scratched with a pipette tip, and immediately photographed (0 h). Cells were incubated with or without compound k (2 μM), senexin A (5 μM), or pirfenidone (1 mM) for 1 h, then treated with TGF-β1 (10 ng/mL) and allowed to migrate into the wound area for 24 or 48 h, and photographed. Cell migration into the wound was quantified using ImageJ software; the solid line indicates time zero. Quantitative assessment of the mean number of cells in the denuded zone is expressed as the mean±SEM from three independent experiments. **p<0.01 compared to the control group; ##p<0.01 and ###p<0.001 compared to TGF-β1-treated group.
Cells were seeded in six-well plates and cultured to 90% confluency, at which time the cellular monolayer was wounded with a sterile 10-μL pipette tip and washed with culture medium to remove detached cells. Cells were incubated in the presence or absence of test compounds for 24 h and photographed. The wound closure percentages were subsequently determined using ImageJ software (National Institutes of Health, USA).

A549 cells [3] = test: TGF-β1-induced oxidative stress (MDA, Nox4); assay type: cell-based, human; conditions: compounds 2 μM, TGF-β1 10 ng/ml 24 h
Experimental: A549 cells were incubated with compounds k, b, a (2 μM), senexin A (5 μM), or pirfenidone (1 mM) for 1 h, followed by treatment with 10 ng/ml TGF-β1 for a further 24 h. Malondialdehyde (MDA) (FIG. 10A) and Nox4 (FIG. 10B) levels were detected. ***p<0.001 compared to the control group; #p<0.05, ##p<0.01, and ###p<0.001 compared to the TGF-β1-treated group.
An end product of lipid peroxidation, malondialdehyde (MDA), was measured by spectrophotometry at a wavelength of 532 nm using malondialdehyde bis(dimethyl acetal) as the standard as per the assay protocol (Cell Biolabs, USA).

A549 cells [4] = test: Nuclear p-Smad3 T179 and RNA polymerase II pS2/S5 after TGF-β1, fractionation and western blot; assay type: cell-based, human; conditions: compound k 5 μM, senexin A 5 μM, pirfenidone 1 mM; TGF-β1 10 ng/ml 3 h
Experimental: FIGS. 8A-8B show the inhibitory effects of cellular distributions of TGF-β1-induced p-Smad3 T179, RNA polymerase II pS2/S5, and Smad3 after treatment with compound k. Human alveolar epithelial A549 cells were incubated with compound k (5 μM), senexin A (5 μM), or pirfenidone (1 mM) for 1 h, followed by stimulation with TGF-β1 (10 ng/ml) for 3 h. Protein expressions in the cytoplasmic and nuclear fractions were subjected to a Western blot analysis using the indicated antibodies. α-Tubulin and histone H3 served as loading controls for the cytoplasmic and nuclear fractions, respectively. Results are shown as the mean±SEM of three independent experiments. **p<0.01 and ***p<0.001 compared to the control group; #p<0.05 and ##p<0.01 compared to the TGF-β1-treated group.
as §1
A Nuclear/Cytosol Fractionation Kit (Biovision, USA) was used to separate the cytosolic and nuclear fractions. […]

Chain of CDK8 (P49336 whole entry, looked up): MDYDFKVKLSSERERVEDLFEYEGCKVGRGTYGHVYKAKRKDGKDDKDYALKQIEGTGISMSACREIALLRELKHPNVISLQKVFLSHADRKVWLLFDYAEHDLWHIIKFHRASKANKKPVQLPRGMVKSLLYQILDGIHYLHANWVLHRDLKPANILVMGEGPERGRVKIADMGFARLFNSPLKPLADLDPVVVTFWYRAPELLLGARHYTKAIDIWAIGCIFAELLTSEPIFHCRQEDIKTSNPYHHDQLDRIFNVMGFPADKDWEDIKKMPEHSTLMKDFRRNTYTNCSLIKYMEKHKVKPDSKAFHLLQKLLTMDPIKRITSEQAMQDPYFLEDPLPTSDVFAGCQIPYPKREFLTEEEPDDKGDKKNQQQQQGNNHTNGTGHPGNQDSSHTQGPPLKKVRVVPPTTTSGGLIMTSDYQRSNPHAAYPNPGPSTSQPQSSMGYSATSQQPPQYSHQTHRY
Chain of CDK8 (P24863 whole entry partner, looked up): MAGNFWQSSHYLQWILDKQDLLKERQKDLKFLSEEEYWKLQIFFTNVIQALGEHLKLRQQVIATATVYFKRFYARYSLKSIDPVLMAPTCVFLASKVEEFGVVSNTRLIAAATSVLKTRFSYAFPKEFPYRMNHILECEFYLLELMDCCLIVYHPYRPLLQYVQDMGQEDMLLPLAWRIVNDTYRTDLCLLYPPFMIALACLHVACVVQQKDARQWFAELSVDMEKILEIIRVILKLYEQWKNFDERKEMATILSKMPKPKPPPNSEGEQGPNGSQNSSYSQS

| SMILES | CDK8 Inhibition percentage at 10 μM (CDK8) | inhibition at 10 µM (CDK8) | pIC50 (CDK8) | other results |
| --- | --- | --- | --- | --- |
| CC(C)=C1C(=O)Nc2ccc(S(=O)(=O)Nc3ccc(NC(=O)c4ccccc4)cc3)cc21 [Compound c, N-(4-((2-Oxo-3-(propan-2-ylidene)indoline)-5-sulfonamido)phenyl)benzamide] | 33% |  |  |  |
| CC(C)=C1C(=O)Nc2ccc(S(=O)(=O)Nc3ccc(C(=O)c4ccccc4)cc3)cc21 [Compound d, N-(4-Benzoylphenyl)-2-oxo-3-(propan-2-ylidene)indoline-5-sulfonamide] |  | 99% | 6.42 |  |
| CC(=O)c1cccc(NS(=O)(=O)c2ccc3c(c2)C(=C(C)C)C(=O)N3)c1 [Reference Compound, N-(3-acetylphenyl)-2-oxo-3-(propan-2-ylidene)-indoline-5-sulfonamide, reference compound] |  | 87% | 5.77 |  |
| CC(C)=C1C(=O)Nc2ccc(S(=O)(=O)Nc3cc(-c4ccc(C)cc4)[nH]n3)cc21 [Compound f, 2-Oxo-3-(propan-2-ylidene)-N-(5-(p-tolyl)-1H-pyrazol-3-yl) indoline-5-sulfonamide] | 89% |  | 6.10 |  |
| CC(C)=C1C(=O)Nc2ccc(S(=O)(=O)Nc3ccc(Nc4ccccc4)cc3)cc21 [Compound b, 2-Oxo-N-(4-(phenylamino)phenyl)-3-(propan-2-ylidene)indoline-5-sulfonamide] |  | 76% | 5.80 | TGF-β1-triggered EMT protein expressions (A549 cells [1]): slight reduction; inhibition of cell migration (A549 cells [2]): less inhibition; TGF-β1-caused oxidative stress (MDA and Nox4 levels) (A549 cells [3]): less-potent inhibition |
| CC(C)=C1C(=O)Nc2ccc(S(=O)(=O)Nc3cccc4c(=O)[nH][nH]c(=O)c34)cc21 [Compound n, N-(1,4-Dioxo-1,2,3,4-tetrahydrophthalazin-5-yl)-2-oxo-3-(propan-2-ylidene)indoline-5-sulfonamide] |  | 74% | 5.52 |  |
| CNC(=O)c1cc(Oc2ccc(NS(=O)(=O)c3ccc4c(c3)C(=C(C)C)C(=O)N4)cc2)ccn1 [Compound j, N-Methyl-4-(4-((2-oxo-3-(propan-2-ylidene)indoline)-5-sulfonamido)phenoxy)picolinamide] | 85% |  | 5.91 |  |
| CNC(=O)c1ccc(NS(=O)(=O)c2ccc3c(c2)C(=C(C)C)C(=O)N3)cc1F [Compound l, 2-Fluoro-N-methyl-4-((2-oxo-3-(propan-2-ylidene)indoline)-5-sulfonamido)benzamide] | 92% |  | 6.19 |  |
| CC(C)=C1C(=O)Nc2ccc(S(=O)(=O)Nc3nc4ccccc4s3)cc21 [Compound h, N-(Benzo[d]thiazol-2-yl)-2-oxo-3-(propan-2-ylidene)indoline-5-sulfonamide] |  | 91% | 6.06 |  |
| CC(C)=C1C(=O)Nc2ccc(S(=O)(=O)Nc3ccc(C)c(Nc4nccc(-c5cccnc5)n4)c3)cc21 [Compound m, N-(4-Methyl-3-((4-(pyridin-3-yl)pyrimidin-2-yl)amino)phenyl)-2-oxo-3-(propan-2-ylidene)indoline-5-sulfonamide] |  | 46% |  |  |
| Cc1ccc(=O)n(-c2ccccc2)c1 [pirfenidone, reference compound] |  |  |  | phosphorylation of p-Smad3 T179 and RNA Pol II pSer2/5 (A549 cells [4]): less-potent inhibition; TGF-β1-triggered EMT protein expressions (A549 cells [1]): slight inhibition |
| CC(C)=C1C(=O)Nc2ccc(S(=O)(=O)Nc3ccc(-n4ccnc4)cc3)cc21 [Compound i, N-(4-(1H-imidazol-1-yl)phenyl)-2-oxo-3-(propan-2-ylidene) indoline-5-sulfonamide] | 92% |  | 6.02 |  |
| CC(C)=C1C(=O)Nc2ccc(S(=O)(=O)Nc3ccc(Oc4ccc([N+](=O)[O-])cc4)cc3)cc21 [Compound a, N-(4-(4-Nitrophenoxy)phenyl)-2-oxo-3-(propan-2-ylidene)indoline-5-sulfonamide] |  | 48% |  | TGF-β1-triggered EMT protein expressions (A549 cells [1]): no significant reduction; inhibition of cell migration (A549 cells [2]): less inhibition; TGF-β1-caused oxidative stress (MDA and Nox4 levels) (A549 cells [3]): less-potent inhibition |
| CC(C)=C1C(=O)Nc2ccc(S(=O)(=O)Nc3cc(-c4ccccc4)[nH]n3)cc21 [Compound e, 2-Oxo-N-(5-phenyl-1H-pyrazol-3-yl)-3-(propan-2-ylidene)indoline-5-sulfonamide] |  | 82% | 5.79 |  |
| CC(C)=C1C(=O)Nc2ccc(S(=O)(=O)Nc3nnc(-c4ccccc4)s3)cc21 [Compound g, 2-Oxo-N-(5-Phenyl-1,3,4-thiadiazol-2-yl)-3-(propan-2-ylidene) indoline-5-sulfonamide] | 99% |  | 6.47 |  |
